Measurements reported in article PMC5915154, “Aloe-emodin as drug candidate for cancer therapy” (Oncotarget, 2018).

Tests used:
[1] = system: multidrug-resistant P-glycoprotein-overexpressing CEM/ADR5000 leukemia cells; experiment: Resazurin reduction assay, CEM/ADR5000; assay type: cell-based, human; conditions: for IC50: Homo sapiens, CEM/ADR5000, resazurin assay, 72 h
Description: (§1) The cell lines used in the present work, their origins and maintenance conditions were previously reported. In brief, drug-sensitive CCRF-CEM and multidrug resistant P-glycoprotein-over-expressing CEM/ADR5000 leukemia cells, MDA-MB-231-pcDNA3 breast cancer cells and their transfectant subline MDA-MB-231-BCRP clone 23, HCT116 (p53^+/+) colon cancer cells and its knockout clone HCT116 (p53^-/-), U87.MG glioblastoma multiform cells and their transfectant subline U87.MGΔEGFR as well as HEK293 human embryonic kidney cells transfected with or without a cDNA for ABCB5 were used. The human peripheral mononuclear cells (PMNC) were isolated from fresh blood samples of a healthy donor by using Histopaque® (Sigma-Aldrich, Taufkirchen, Germany).
(§2) Resazurin reduction assay was conducted to test the cytotoxicity of the compounds. This assay is based on the reduction of resazurin to resorufin by viable cells. […] Briefly, aliquots of 0.5×10^4 adherent cells which were allowed to attach overnight and 1×10^4 suspension cells per well were seeded in 96-well-plates with or without the addition of varying concentrations of the test substance to get a total volume of 200 μL/well. After 72 h incubation and addition of resazurin (Sigma-Aldrich) for 4 h, staining was measured by an Infinite M2000 ProTM plate reader (Tecan, Germany) using an excitation wavelength of 544 nm and an emission wavelength of 590 nm. Each assay was independently performed for at least three times, with six parallel replicates each. The protocol has been recently reported. Fifty percent inhibition concentrations (IC50) represent the drug concentrations required to inhibit 50% of cell proliferation, which were fitted with nonlinear regression using GraphPad® Prism7.

[2] = system: drug-sensitive CCRF-CEM leukemia cells; experiment: Resazurin reduction assay, CCRF-CEM; assay type: cell-based; conditions: Homo sapiens, 72 h
Description: as §1, §2

CCRF-CEM cells [3] = experiment: Mitochondrial membrane potential (JC-1, flow cytometry); assay type: cell-based, human; conditions: CCRF-CEM, 0.01, 0.1, and 1 μM, 48 h
Description: The JC-1 Mitochondrial Membrane Potential Assay Kit (Cayman Chemical, Ann Arbor, MI, USA) was applied for the detection of MMP by flow cytometry according to the manufacturer’s instructions. The cationic dye, 5, 5’, 6, 6’- tetrachloro- 1, 1’, 3, 3’- tetraethylbenzimidazolylcarbocyanine iodide (JC-1) enters the mitochondria and changes its fluorescent properties based on the aggregation of the probe. In healthy cells having high MMP, JC-1 forms complexes known as J-aggregates with intense red fluorescence. On the other hand, in cells with low MMP, JC-1 remains in its monomeric form showing green fluorescence. […] A LSR-Fortessa FACS analyzer (Becton–Dickinson) was used to detect the J-aggregate form of JC-1 with an excitation wavelength of 535 ± 20 nm and an emission wavelength of 590 ± 20 nm as well as the monomeric form of JC-1 at excitation and emission wavelengths of 485 and 535 nm, respectively. The results were analyzed by the FlowJo software (Celeza, Olten, Switzerland). 2×10^4 cells were counted for each experiment which were repeated in triplicate.

CCRF-CEM cells [4] = experiment: Cell cycle analysis (PI, flow cytometry); assay type: cell-based, human; conditions: 0.01 μM and 0.1 μM, 24 h
Protocol: The cells were collected, washed in PBS and fixed with ice-cold 96% ethanol. After washing the cells with PBS again, the cells were dissolved in PBS and stained with propidium iodide (PI, Sigma-Aldrich) at a final concentration of 50 μg/mL for 15 min in the dark. Cell cycle analyses were performed using a BD Accuri™ C6 Flow cytometer (Becton-Dickinson, Heidelberg, Germany) at 488 nm excitation wavelength, and emission was measured by a 610/20 nm band pass filter. All experiments were performed at least in triplicates. The protocol has been recently reported by us.

CCRF-CEM cells [5] = experiment: Annexin V/PI detection of apoptosis and necrosis; assay type: cell-based, human; conditions: 0.1 μM, 72 h
Description: A commercial annexin V/PI detection apoptosis kit was used to detect early apoptosis and necrosis according to the manufacturer’s instructions (Life Technologies, Carlsbad, CA, USA). Annexin V is a calcium-dependent phospholipid-binding protein, which binds to phosphatidylserine (PS). PS is predominantly located at the inner side of the plasma membrane under normal conditions and moves to outer surface of the membrane upon the onset of early apoptosis. This can be detected FITC-labeled annexin V. PI is a marker of late apoptosis and necrosis. We treated aliquots of 1×10^6 CCRF-CEM cells with 0.5-, 1-, 2- and 4-fold IC50 of Aloe-emodin for 48, 72 or 96 h, respectively. After washing the cells with PBS, they were stained with annexin V/FITC at room temperature for 10-15 min. Subsequently, cells were washed again and stained with PI in the dark. Then, the results were analyzed by a BD Accuri™ C6 flow cytometer at excitation wavelength 488 nm and emission wavelength 530 nm to record annexin V/FITC signals. The fluorescence of PI was detected at 488 nm excitation and was measured by a 610/20 nm band pass filter. At least three independent experiments were performed..

For `O=C(O)c1cc(O)c2c(c1)C(=O)c1cccc(O)c1C2=O` [rhein], the IC50 [1] was 46.9 µM and the IC50 [2] was 34.4 µM.

`COc1cccc2c1C(=O)c1c(O)c3c(c(O)c1C2=O)C[C@@](O)(C(=O)CO)C[C@@H]3O[C@H]1C[C@H](N)[C@H](O)[C@H](C)O1` [doxorubicin, Doxorubicin, reference compound] was tested, and the IC50 [1] was 11 µM, the IC50 [2] was 0.0007 µM and the “MMP depolarization (JC-1 fluorescence)” value (CCRF-CEM cells [3]) was “shift from red to green fluorescence”. For the same molecule, the cell cycle arrest (CCRF-CEM cells [4]) was “induced both S- and G2/M-arrest” and the “apoptotic or necrotic cell death” value (CCRF-CEM cells [5]) was “late apoptosis and early necrosis”.

For `COc1cc(O)c2c(c1)C(=O)c1cc(C)cc(O)c1C2=O` [physcion], the IC50 [1] was 74.8 µM, the “degree of resistance (IC50 CEM/ADR5000 divided by IC50 CCRF-CEM)” value ([1]; collateral sensitivity of CEM/ADR5000) was 0.61 fold and the IC50 [2] was 124 µM.

In the case of `Cc1cc(O)c2c(c1)C(=O)c1cc(O)cc(O)c1C2=O` [emodin, Emodin], the IC50 [1] is reported as 35.3 µM and the IC50 [2] is reported as 35.6 µM.
